Consider six molecules from patent USRE33897E, “Synthetic polypeptides and antibodies related to Epstein-Barr virus nuclear antigen” (Scripps Clinic and Research Foundation, priority 1989, dated 1992).

The nature of data set [1]: Circular dichroism spectroscopy of polypeptides in phosphate buffered saline. It is filed as physicochemical. Particulars: 1 mg/ml. The method, then: The conformational properties of the polypeptides were investigated to elucidate any secondary structure that might be necessary for polypeptide immunoreaction with human anti-EBNA antibodies. The polypeptides were dissolved at a concentration of 1 mg/ml in phosphate-buffered saline (PBS). Spectra were taken using 1 ml samples in a Cary 61 spectropolarimeter (Cary Instruments, Applied Physics Corp., Monrovia, Calif.) interfaced and automated with a Digital Equipment Corporation 11/02 computer (Digital Equipment Corporation, Maynard, Mass.).
On the technique in general: CD spectra are sensitive to the conformation of chiral molecules.

In another data set the test system is anti-EBNA antibodies. The data set can be described thus: ELISA with polypeptide as solid phase antigen, detecting anti-polypeptide antibodies in sera. Particulars: for Reaction of VCA- sera with polypeptide: panel of 19 VCA- sera; for Reaction of sera of clinically normal VCA+ individuals with polypeptide: two serum dilutions; for Average titer of Progressive Systemic Schlerosis (PSS) patients to polypeptide compared with normals: high and low serum dilutions; for Number of 91 anti-EBNA positive (ACIF) sera positive against polypeptide: sera at 1:20 dilution. It is filed as binding, human. The method, then:
A solution containing a substrate for the enzyme label such as hydrogen peroxide for peroxidase and a color-forming dye precursor such as o-phenylenediamine, or p-nitrophenyl phosphate for alkaline phosphatase is thereafter admixed with the solid phase.
Anti-peptide antibody binding and inhibition studies were carried out by an enzyme-linked immunosorbent assay (ELISA) as described below.
Briefly, microtiter wells (Costar, #3590, Cambridge, Mass.) were coated with individual polypeptides as antigens by adding 100 microliters (ul) of BBS [10 millimoler (mM) sodium borate (pH 8.3), 150 mM NaCl] containing polypeptide at a concentration of 10 micrograms per milliliter (ug/ml). Contact between the wells and antigen-containing solution was maintained for a predetermined time, typically 15 minutes, and at 20 degrees C., to form an antigen-coated solid phase. The solid and liquid phases were separated and the wells were washed three times with BBS.
Non-specific binding sites were blocked by admixing 200 microliters of 1% bovine serum albumin (BSA) in each well to form another solid-liquid phase admixture, and maintaining that solid-liquid phase admixture for 30 minutes, at 20 degrees C. The phases were separated and excess, unbound BSA was removed by washinq three times with BBS.
[…] Contact between the diluted sera and the antigen-coated solid phase was maintained for a predetermined time such as 1 hour, and at 20 degrees C., for an immunoreactant to form. The solid and liquid phases were separated, and the solid phase; i.e., antigen-coated, immunoreactant-containing wells, was then washed three times with BBS.
The antibodies in human sera that immunoreacted with an adsored polypeptide were detected using an indicating means comprising alkaline phosphatase-conjugated goat anti-human Ig antibody (Tago, Burlington, CA). The antibodies in rabbit sera that immunoreacted with an adsorbed polypeptide were detected using an indicating means comprising alkaline phosphatase-conjugated goat anti-rabbit Ig antibody (Kirkegard & Perry Laboratories, Inc., Gaithersburg, Md.). In either instance, 100 microliters of the indicating antibody diluted 1:300 in BBS were added per well to form a further solid-liquid phase composition. This solidliquid phase composition was maintained for a predetermined time, one hour, for the formation of a reaction product between the human antibodies bound to the solid phase and the indicating means, and at 20 degrees C.

Residues, ends and D or L forms follow the SMILES beside them.

In the case of `CC[C@H](C)[C@H](N)C(=O)N[C@@H](CCSC)C(=O)N[C@@H](CO)C(=O)N[C@@H](CC(=O)O)C(=O)N[C@@H](CCC(=O)O)C(=O)NCC(=O)N1CCC[C@H]1C(=O)NCC(=O)N[C@H](C(=O)NCC(=O)N[C@@H](CC(N)=O)C(=O)NCC(=O)N[C@@H](CC(C)C)C(=O)NCC(=O)N[C@@H](CCC(=O)O)C(=O)O)[C@@H](C)O` [Polypeptide F12, H--Ile--Met--Ser--Asp--Glu--Gly--Pro--Gly--Thr--Gly--Asn--Gly--Leu--Gly--Glu--OH] (H-IMSDEGPGTGNGLGE-OH), the “Conformation indicated by circular dichroism spectrum” value (“Conformation indicated” below) in data set [1] is reported as “partial assumption of such conformation”. In addition, in the data set with anti-EBNA antibodies, the “Reaction of VCA- sera with polypeptide” value is reported as “None of the VCA- sera were found to react positively” and the “Reaction of sera of clinically normal VCA+ individuals with polypeptide” value (“Reaction of sera … with polypeptide” below) is recorded as “all of the VCA+ indiviuals were positive”.

Consider `C[C@H](NC(=O)CNC(=O)[C@@H]1CCCN1)C(=O)N1CCC[C@H]1C(=O)NCC(=O)NCC(=O)N[C@@H](CO)C(=O)NCC(=O)N[C@@H](CO)C(=O)NCC(=O)N1CCC[C@H]1C(=O)O` [Polypeptide F13, H--Pro--Gly--Ala--Pro--Gly--Gly--Ser--Gly--Ser--Gly--Pro--OH] (H-PGAPGGSGSGP-OH), for which, in data set [1], the “Conformation indicated” value is recorded as “random conformation”. Further, in the data set on anti-EBNA antibodies, the “Reaction of VCA- sera with polypeptide” value is recorded as “None of the VCA- sera were found to react positively” and the “Reaction of sera … with polypeptide” value was “all of the VCA+ indiviuals were positive”.

`C[C@H](NC(=O)CNC(=O)CNC(=O)CNC(=O)[C@H](C)NC(=O)CNC(=O)[C@H](C)NC(=O)CNC(=O)CNC(=O)[C@H](C)NC(=O)CNC(=O)CNC(=O)[C@H](C)NC(=O)CNC(=O)CN)C(=O)NCC(=O)O` [Polypeptide F14, H--Gly--Gly--Ala--Gly--Gly--Ala--Gly--Gly--Ala--Gly--Ala--Gly--Gly--Gly--Ala--Gly--OH] (H-GGAGGAGGAGAGGGAG-OH): in data set [1], the “Conformation indicated” value is “very similar spectra”. Besides, in the data set with anti-EBNA antibodies, the “Average titer of Progressive Systemic Schlerosis (PSS) patients to polypeptide compared with normals” value (“Average titer … compared with normals” below) is listed as “relatively higher average titer”, the “Reaction of VCA- sera with polypeptide” value is recorded as “None of the VCA- sera were found to react positively”, the “Number of 91 anti-EBNA positive (ACIF) sera positive against polypeptide” value (shortened to “Number of 91 anti-EBNA positive”) is 91 and the “Reaction of sera … with polypeptide” value is “all of the VCA+ indiviuals were positive”.

`C[C@H](NC(=O)CN)C(=O)NCC(=O)NCC(=O)N[C@@H](C)C(=O)NCC(=O)N[C@@H](C)C(=O)NCC(=O)NCC(=O)NCC(=O)N[C@@H](C)C(=O)NCC(=O)NCC(=O)N[C@@H](C)C(=O)NCC(=O)NCC(=O)O` [Polypeptide F15, H--Gly--Ala--Gly--Gly--Ala--Gly--Ala--Gly--Gly--Gly--Ala--Gly--Gly--Ala--Gly--Gly--OH] (H-GAGGAGAGGGAGGAGG-OH): the “Conformation indicated” value in data set [1] was “very similar spectra”. For the same molecule, in the data set with anti-EBNA antibodies, the “Average titer … compared with normals” value was “relatively higher average titer”, the “Reaction of VCA- sera with polypeptide” value is reported as “None of the VCA- sera were found to react positively”, the “Number of 91 anti-EBNA positive” value is reported as 91 and the “Reaction of sera … with polypeptide” value is on record as “all of the VCA+ indiviuals were positive”.

With `C[C@H](NC(=O)CNC(=O)CNC(=O)[C@H](C)NC(=O)CNC(=O)[C@H](C)NC(=O)CNC(=O)CNC(=O)[C@H](C)NC(=O)CNC(=O)[C@H](C)NC(=O)CNC(=O)CNC(=O)[C@H](C)NC(=O)CNC(=O)[C@H](C)NC(=O)CNC(=O)CN)C(=O)NCC(=O)N[C@@H](C)C(=O)NCC(=O)O` [Polypeptide F16, H--Gly--Gly--Ala--Gly--Ala--Gly--Gly--Ala--Gly--Ala--Gly--Gly--Ala--Gly--Ala--Gly--Gly--Ala--Gly--Ala--Gly--OH] (H-GGAGAGGAGAGGAGAGGAGAG-OH), in the data set on anti-EBNA antibodies, the “Average titer … compared with normals” value is on record as “relatively higher average titer”, the “Reaction of VCA- sera with polypeptide” value is “None of the VCA- sera were found to react positively”, the “Number of 91 anti-EBNA positive” value is 91 and the “Reaction of sera … with polypeptide” value is listed as “all of the VCA+ indiviuals were positive”.

With `C[C@H](NC(=O)CNC(=O)CNC(=O)[C@H](C)NC(=O)CNC(=O)[C@H](C)NC(=O)CNC(=O)[C@H](C)NC(=O)CNC(=O)[C@@H](NC(=O)CNC(=O)CNC(=O)[C@H](Cc1c[nH]cn1)NC(=O)[C@@H](NC(=O)CNC(=O)[C@@H](N)CCCCN)[C@@H](C)O)[C@@H](C)O)C(=O)NCC(=O)N[C@@H](C)C(=O)NCC(=O)O` [Polypeptide P27, H--Lys--Gly--Thr--His--Gly--Gly--Thr--Gly--Ala--Gly--Ala--Gly--Ala--Gly--Gly--Ala--Gly--Ala--Gly--OH] (H-KGTHGGTGAGAGAGGAGAG-OH), in data set [1], the “Conformation indicated” value is reported as “very similar spectra”. For the same molecule, in the data set with anti-EBNA antibodies (VCA- Normals (n = 27), dilution 1:20), the “OD405 × 10^3 obtained with patient antibodies to polypeptide, average ± one standard deviation” value was found to be 67 ± 23 OD405 × 10^3. Moreover, the “Average titer … compared with normals” value in the data set with anti-EBNA antibodies is on record as “relatively higher average titer”. Besides, the “Reaction of VCA- sera with polypeptide” value with anti-EBNA antibodies is reported as “None of the VCA- sera were found to react positively”. Moreover, the “Number of 91 anti-EBNA positive” value in the data set on anti-EBNA antibodies worked out at 91. Besides, the “Antibodies binding to polypeptide before and after EBV-induced infectious mononucleosis” value with anti-EBNA antibodies (sera of two subjects) was “absent before infection, but appeared afterward”. The “OD405 × 10^3 obtained with patient antibodies to polypeptide” value worked out at 107 OD405 × 10^3 in the data set on anti-EBNA antibodies (serum MV post-mononucleosis, dilution 1:20); 15 OD405 × 10^3 with anti-EBNA antibodies (serum MV pre-mononucleosis, dilution 1:20); 33 OD405 × 10^3 in the data set with anti-EBNA antibodies (serum SB post-mononucleosis, dilution 1:20); 11 OD405 × 10^3 in the data set with anti-EBNA antibodies (serum SB pre-mononucleosis, dilution 1:20); 155 OD405 × 10^3 in the data set on anti-EBNA antibodies (serum VCA + Normal 1, dilution 1:20); 516 OD405 × 10^3 in the data set with anti-EBNA antibodies (serum VCA + Normal 2, dilution 1:20). Further, the “Reaction of sera … with polypeptide” value in the data set with anti-EBNA antibodies is listed as “all of the VCA+ indiviuals were positive”.
